Patent US20200093807A1, “NEW USE OF RIFAMYCIN-NITROIMIDAZOLE CONJUGATE MOLECULE” (TenNor Therapeutics Limited, priority 2017, published 2020)
Like-named read-outs stand apart in the source and are kept apart here.

Columns and labels:
[1] = test system: Actinomyces naeslundii ATCC 12104; test: MIC, anaerobic agar dilution (CLSI); type: cell-based; details: ATCC12104, 35° C., 42-48 hours
[2] = test system: Anaerococcus (Anaerococcus(prevotii)) ATCC 9321; test: MIC, anaerobic agar dilution (CLSI); type: cell-based; details: 35° C., 42-48 hours
[3] = test system: Atopobium vaginae BAA-55; test: MIC, anaerobic agar dilution (CLSI); type: cell-based; details: Fannyhessea vaginae, BAA55
[4] = test system: Bacteroides fragilis (QC) ATCC 25285; test: MIC, anaerobic agar dilution (CLSI); type: cell-based; details: ATCC25285, 35° C., 42-48 hours
[5] = test system: Bacteroides fragilis (MET^R) MMX 3387; test: MIC, anaerobic agar dilution (CLSI); type: cell-based
[6] = test system: Bacteroides thetaiotaomicron (MET^R) MMX 3409; test: microbe, parasite or virus in culture; type: cell-based; details: Bacteroides thetaiotaomicron
[7] = test system: Bacteroides gracilis ATCC 33236; test: MIC, anaerobic agar dilution (CLSI); type: cell-based; details: Campylobacter gracilis, ATCC33236
[8] = test system: Bacteroides uniformis MMX 1277; test: MIC, anaerobic agar dilution (CLSI); type: cell-based; details: MMX1277
[9] = test system: Bacteroides vulgatus MMX 8348; test: MIC, anaerobic agar dilution (CLSI); type: cell-based; details: Phocaeicola vulgatus, MMX8348, 35° C., 42-48 hours
[10] = test system: Bacteroides vulgatus (MET^R) MMX 3490; test: MIC, anaerobic agar dilution (CLSI); type: cell-based; details: Phocaeicola vulgatus
[11] = test system: Bacteroides ovatus (MET^R) MMX 3504; test: MIC, anaerobic agar dilution (CLSI); type: cell-based; details: 35° C., 42-48 hours
[12] = test system: Bifidobacterium (breve) ATCC 15698; test: MIC, anaerobic agar dilution (CLSI); type: cell-based; details: ATCC15698, 35° C., 42-48 hours
[13] = test system: Bifidobacterium longum ATCC 15707; test: MIC, anaerobic agar dilution (CLSI); type: cell-based; details: ATCC15707, 35° C., 42-48 hours
[14] = test system: Clostridium sporogenes ATCC 19404; test: MIC, anaerobic agar dilution (CLSI); type: cell-based; details: ATCC19404, 35° C., 42-48 hours
[15] = test system: Clostridium perfringens (MET^R) MMX 3521; test: microbe, parasite or virus in culture; type: cell-based
[16] = test system: Eubacterium (rectale) ATCC 33656; test: MIC, anaerobic agar dilution (CLSI); type: cell-based; details: Agathobacter rectalis, ATCC33656, 35° C., 42-48 hours
[17] = test system: Fusobacterium nucleatum ATCC 10953; test: MIC, anaerobic agar dilution (CLSI); type: cell-based; details: ATCC10953, 35° C., 42-48 hours
[18] = test system: Fusobacterium nucleatum ATCC 25586; test: MIC, anaerobic agar dilution (CLSI); type: cell-based; details: ATCC25586, 35° C., 42-48 hours
[19] = test system: Gardnerella vaginalis ATCC 14018; test: MIC, anaerobic agar dilution (CLSI); type: cell-based; details: ATCC14018, 35° C., 42-48 hours
[20] = test system: Gardnerella vaginalis ATCC 49145; test: MIC, anaerobic agar dilution (CLSI); type: cell-based; details: ATCC49145, 35° C., 42-48 hours
[21] = test system: Lactobacillus crispatus ATCC 33820; test: MIC, anaerobic agar dilution (CLSI); type: cell-based; details: ATCC33820
[22] = test system: Lactobacillus gasseri ATCC 33323; test: MIC, anaerobic agar dilution (CLSI); type: cell-based; details: ATCC33323
[23] = test system: Lactobacillus jensenii ATCC 25258; test: MIC, anaerobic agar dilution (CLSI); type: cell-based; details: ATCC25258
[24] = test system: Mobiluncus (curtisii subsp. curtisii) ATCC 35241; test: MIC, anaerobic agar dilution (CLSI); type: cell-based; details: ATCC35241, 35° C., 42-48 hours
[25] = test system: Mobiluncus (mulieris) ATCC 35243; test: MIC, anaerobic agar dilution (CLSI); type: cell-based; details: ATCC35243, 35° C., 42-48 hours
[26] = test system: Peptococcus (niger) ATCC 27731; test: MIC, anaerobic agar dilution (CLSI); type: cell-based; details: ATCC27731, 35° C., 42-48 hours
[27] = test system: Peptoniphilus asaccharolyticus ATCC 29743; test: MIC, anaerobic agar dilution (CLSI); type: cell-based; details: ATCC29743, 35° C., 42-48 hours
[28] = test system: Peptostreptococcus (magnus) ATCC 14956; test: MIC, anaerobic agar dilution (CLSI); type: cell-based; details: Finegoldia magna, ATCC14956, 35° C., 42-48 hours
[29] = test system: Peptostreptococcus anaerobius ATCC 27337; test: MIC, anaerobic agar dilution (CLSI); type: cell-based; details: ATCC27337, 35° C., 42-48 hours
[30] = test system: Prevotella asaccharolytica (MET^R) MMX 3552; test: MIC, anaerobic agar dilution (CLSI); type: cell-based; details: 35° C., 42-48 hours
[31] = test system: Prevotella bivia ATCC 29303; test: MIC, anaerobic agar dilution (CLSI); type: cell-based; details: ATCC29303, 35° C., 42-48 hours
[32] = test system: Prevotella bivia MMX 3450; test: MIC, anaerobic agar dilution (CLSI); type: cell-based; details: MMX3450, 35° C., 42-48 hours
[33] = test system: Prevotella bivia (MET^R) MMX 3454; test: MIC, anaerobic agar dilution (CLSI); type: cell-based; details: 35° C., 42-48 hours
[34] = test system: Prevotella disiens MMX 3457; test: MIC, anaerobic agar dilution (CLSI); type: cell-based; details: MMX3457, 35° C., 42-48 hours
[35] = test system: Prevotella disiens MMX 3446; test: MIC, anaerobic agar dilution (CLSI); type: cell-based; details: MMX3446, 35° C., 42-48 hours
[36] = test system: Prevotella intermedia ATCC 25611; test: MIC, anaerobic agar dilution (CLSI); type: cell-based; details: ATCC25611, 35° C., 42-48 hours
[37] = test system: Treponema denticola ATCC 35405; test: MIC, anaerobic agar dilution (CLSI); type: cell-based; details: ATCC35405, 35° C., 42-48 hours
[38] = test system: Veionella parvula ATCC 17745; test: MIC, anaerobic agar dilution (CLSI); type: cell-based; details: 35° C., 42-48 hours
[39] = test system: Gardnerella; test: MIC, agar dilution, Gardnerella; type: cell-based; details: Gardnerella as major BV bacteria
[40] = test system: Bacteroides fragilis (QC) ATCC 25285; details: range printed in parentheses; cited from earlier work
[41] = test system: Bacterial Vaginosis (BV); details: within 3 months; cited from earlier work

Cc1ncc([N+](=O)[O-])n1CCO [Metronidazole]
256 µg/mL: MIC [1]
4 µg/mL: MIC [19] | MIC [20] | MIC [39]
128 µg/mL: MIC [3] | MIC [10]
8 µg/mL: MIC [12] | MIC [13]
> 256 µg/mL: MIC ([5]; Bacteroides fragilis) | MIC [7] | MIC ([8]; Bacteroides uniformis) | MIC [15] | MIC ([21]; Lactobacillus crispatus) | MIC ([22]; Lactobacillus gasseri) | MIC ([23]; Lactobacillus jensenii)
0.06 µg/mL: MIC [14] | MIC [17]
2 µg/mL: MIC [2] | MIC [6] | MIC [11] | MIC [18] | MIC [24] | MIC [38]
up to 58%: recurrence rate [41]
0.25 µg/mL: MIC [29]
1 µg/mL: MIC [4] | MIC [9] | MIC [28] | MIC [30] | MIC [31] | MIC [32] | MIC [36]
0.25 to 1 µg/mL: MIC range in parentheses (QC strain reference range) [40]
0.5 µg/mL: MIC [16] | MIC [25] | MIC [26] | MIC [27] | MIC [33] | MIC [34] | MIC [35] | MIC [37]

CO[C@H]1/C=C/O[C@@]2(C)Oc3c(C)c(O)c4c(O)c(c(/C=N/N5CCN(C)CC5)c(O)c4c3C2=O)NC(=O)/C(C)=C\C=C\[C@H](C)[C@H](O)[C@@H](C)[C@@H](O)[C@@H](C)[C@H](OC(C)=O)[C@@H]1C [Rifampicin]
0.25 µg/mL: MIC ([3]; Atopobium vaginae BAA-55, anaerobic, 35° C., 42-48 hours, read-out: MIC) | MIC [4] | MIC ([5]; Bacteroides fragilis (MET^R) MMX 3387, anaerobic, 35° C., 42-48 hours, read-out: MIC) | MIC [9] | MIC ([10]; Bacteroides vulgatus (MET^R) MMX 3490, anaerobic, 35° C., 42-48 hours, read-out: MIC) | MIC [12] | MIC ([22]; Lactobacillus gasseri ATCC 33323, anaerobic, 35° C., 42-48 hours, read-out: MIC)
0.12 µg/mL: MIC [35] | MIC [36]
1 µg/mL: MIC [11] | MIC [14] | MIC [15] | MIC [17] | MIC [28]
0.004 µg/mL: MIC [24] | MIC [25] | MIC [26] | MIC [27] | MIC [29] | MIC [30] | MIC [33] | MIC [37]
0.015 µg/mL: MIC [16]
0.5 µg/mL: MIC [6] | MIC ([8]; Bacteroides uniformis MMX 1277, anaerobic, 35° C., 42-48 hours, read-out: MIC) | MIC [13] | MIC [18] | MIC [19] | MIC [20] | MIC ([23]; Lactobacillus jensenii ATCC 25258, anaerobic, 35° C., 42-48 hours, read-out: MIC) | MIC [31] | MIC [34] | MIC [39]
0.03 µg/mL: MIC [1] | MIC [2]
16 µg/mL: MIC ([7]; Bacteroides gracilis ATCC 33236, anaerobic, 35° C., 42-48 hours, read-out: MIC)
4 µg/mL: MIC [38]
0.06 µg/mL: MIC [32]
2 µg/mL: MIC ([21]; Lactobacillus crispatus ATCC 33820, anaerobic, 35° C., 42-48 hours, read-out: MIC)
